Experimental data reported in US20240245691A1 (Sitryx Therapeutics Limited, priority 2021, published 2024).
pEC50, pIC50: −log10 of the molar value. Read-outs that look alike come from different tables or passages of the source.

Tests used:
IL-1β = assay: THP-1 AlphaLISA IL-1β cytokine assay (differentiated THP-1 cells); type: cell-based
Method: (§1) Measuring Inhibitory Effects on IL-1V Cytokine and IL-6 Output from THP-1s
(§2) The cytokine inhibition profiles of compounds of formula (I) were determined in a differentiated THP-1 cell assay. All assays were performed in RPMI-1640 growth medium (Gibco), supplemented with 10% fetal bovine serum (FBS; Gibco), 1% penicillin-streptomycin and 1% sodium pyruvate unless specified otherwise. The IL-1β and IL-6 cytokine inhibition assays were run in a background of differentiated THP-1 cells as described below. All reagents described were from Sigma-Aldrich unless specified otherwise. Compounds were prepared as 10 mM DMSO stocks.
(§3) THP-1 cells were expanded as a suspension up to 80% confluence in appropriate growth medium. Cells were harvested, suspended, and treated with an appropriate concentration of phorbol 12-myristate 13-acetate (PMA) over a 72 hr period (37° C./5% CO2).
(§4) Following 72 hrs of THP-1 cell incubation, cellular medium was removed and replaced with fresh growth media containing 1% of FBS. Working concentrations of compounds were prepared separately in 10% FBS treated growth medium and pre-incubated with the cells for 30 minutes (37° C./5% CO2). Following the 30 minute compound pre-incubation, THP-1s were treated with an appropriate concentration of LPS and the THP-1s were subsequently incubated for a 24 hr period (37° C./5% CO2). An appropriate final concentration of Nigericin was then dispensed into the THP-1 plates and incubated for 1 hour (37° C./5% CO2) before THP-1 supernatants were harvested and collected in separate polypropylene 96-well holding plates.
(§5) Reagents from each of the IL-1β and IL-6 commercial kits (Perkin Elmer) were prepared and run according to the manufacturer's instructions. Subsequently, fluorescence signal detection in a microplate reader was measured (EnVision® Multilabel Reader, Perkin Elmer).
(§6) Percentage inhibition was calculated per cytokine by normalising the sample data to the high and low controls used within each plate (+/−LPS respectively).
(§7) Dimethyl itaconate and 4-octyl itaconate were included as comparator compounds.

IL-6 = assay: THP-1 AlphaLISA IL-6 cytokine assay (differentiated THP-1 cells); type: cell-based
Method: as §1, §2, §3, §4, §5, §6, §7

[1] = system: cryo-preserved hepatocytes; assay: Hepatocyte stability assay, human; type: in vitro ADME
Text: (§8) Defrosted cryo-preserved hepatocytes (viability>70%) were used to determine the metabolic stability of a compound via calculation of intrinsic clearance (CIint; a measure of the removal of a compound from the liver in the absence of blood flow and cell binding). Clearance data are particularly important for in vitro work as they can be used in combination with in vivo data to predict the half-life and oral bioavailability of a drug.
(§9) The metabolic stability in hepatocytes assay involved a time-dependent reaction using both positive and negative controls. The cells must be pre-incubated at 37° C. then spiked with test compound (and positive control); samples taken at pre-determined time intervals were analysed to monitor the change in concentration of the initial drug compound over 60 minutes. A buffer incubation reaction (with no hepatocytes present) acted as a negative control and two cocktail solutions, containing compounds with known high and low clearance values (verapamil/7-hydroxycoumarin and propranolol/diltiazem), acted as positive controls. • 1. The assay was run with a cell concentration of 0.5×10^6 cells/mL in Leibovitz buffer. • 2. All compounds and controls were run in duplicate. • 3. Compound concentration was 10 μM. • 4. All compounds and controls were incubated with both cells and buffer to show turnover is due to hepatic metabolism. • 5. All wells on the incubation plate had 326.7 μL of either cells or buffer added. • 6. Prior to assay, cell and buffer-only incubation plates were preincubated for 10 mins at 37° C. • 7. The assay was initiated by adding compounds, 3.3 μL of 1 mM in 10% DMSO-90% Buffer; final DMSO concentration is 0.1%. • 8. Samples were taken at regular timepoints (0, 5, 10, 20, 40, 60 min) until 60 mins. • 9. Sample volume was 40 μL and added to 160 μL of crash solvent (acetonitrile with internal standard) and stored on ice. • 10. At the end of the assay, the crash plates were centrifuged at 3500 rpm for 20 mins at 4° C. • 11. 80 μL of clear supernatant was removed and mixed with 80 μL of deionised water before being analysed by LC-MS/MS.
(§10) Raw LC-MS/MS data were exported to, and analysed in, Microsoft Excel for determination of intrinsic clearance. The percentage remaining of a compound was monitored using the peak area of the initial concentration as 100%. Intrinsic clearance and half-life values were calculated using a graph of the natural log of percentage remaining versus the time of reaction in minutes.
(§11) 4-Octyl itaconate was included as a comparator compound.

[2] = system: cryo-preserved hepatocytes; assay: Hepatocyte stability assay, mouse; type: in vitro ADME
Text: as §8, §9, §10, §11

[3] = Hepatocyte stability assay, human; type: in vitro ADME; settings: human, hepatocytes, T½
Text: as §8, §9, §10, §11

[4] = Hepatocyte stability assay, mouse; type: in vitro ADME; settings: mouse, hepatocytes, T½
Text: as §8, §9, §10, §11

[5] = system: NRF2 (nuclear factor erythroid 2-related factor 2); assay: NRF2 +/-GSH activation assay (DiscoverX PathHunter NRF2 translocation kit, U2OS cells); type: cell-based; settings: for Emax / pEC50: Homo sapiens; for Emax: U2OS; for pEC50: U2OS PathHunter cells, 6 hours
[6] = Homo sapiens, THP-1, differentiated THP-1 cells, LPS 24 hr then Nigericin 1 hour, read-out: IL-1β (IC50)
[7] = Homo sapiens, THP-1, differentiated THP-1 cells, footnote a: data from repeated experiments, read-out: IL-1β (IC50), data from repeated experiments
[8] = Homo sapiens, THP-1, differentiated THP-1 cells, LPS 24 hr then Nigericin 1 hour, read-out: IL-6 (IC50)
[9] = differentiated THP-1 cells, LPS 24 hr then Nigericin 1 hour, read-out: IL-1β (IC50)
[10] = −GSH, normalised to dimethyl fumarate high control, read-out: NRF2 activation Emax, −GSH
[11] = −GSH, read-out: NRF2 activation EC50, −GSH
[12] = −GSH, normalised to dimethyl fumarate high control
[13] = differentiated THP-1 cells, LPS 24 hr then Nigericin 1 hour, read-out: IL-6 (IC50)
[14] = Human hepatocytes, 10 μM compound, 60 min
[15] = Mouse hepatocytes, 10 μM compound, 60 min

In the case of C=C(CC(=O)N[C@@H](C)c1ccc(Cl)cc1)C(=O)O [Example 15, (S)-4-((1-(4-chlorophenyl)ethyl)amino)-2-methylene-4-oxobutanoic acid], the pIC50 (IL-1β; [6]) was 4.47, the pIC50 (IL-1β; [7]) was 4.49 and the pIC50 (IL-6; [8]) was < 4.21.
For C=C(C(=O)O)C(C)C(=O)NC(C)(C)c1ccc(C(F)(F)F)cc1 (single isomer, unassigned) [Example 53, 3-methyl-2-methylene-4-oxo-4-((2-(4-(trifluoromethyl)phenyl)propan-2-yl)amino)butanoic acid], the pIC50 (IL-1β; [9]) was 5.03, the pIC50 (IL-6; [8]) was < 4.00 and the Clint ([1]; human, hepatocytes) was <3 μL min^−1 10^−6 cells. The T½ ([1]; human, hepatocytes, 10 μM) was >7.67 h, the Clint ([2]; mouse, hepatocytes) was 5 μL min^−1 10^−6 cells and the T½ ([2]; mouse, hepatocytes, 10 μM) was 4.78 h.
With C=C(CC(=O)N[C@@H](C)c1ccc(C(F)(F)F)cn1)C(=O)OC1CCN(C(C)=O)CC1 [Example 35, 1-acetylpiperidin-4-yl (S)-2-methylene-4-oxo-4-((1-(5-(trifluoromethyl)pyridin-2-yl)ethyl)amino)butanoate] the pIC50 (IL-1β; [6]) was 4.37 and the pIC50 (IL-6; [8]) was 4.92.
In the case of C=C(CC(=O)NCc1ccc(C(F)(F)F)cc1)C(=O)O [Example 6, 2-methylene-4-oxo-4-((4-(trifluoromethyl)benzyl)amino)butanoic acid], the pIC50 (IL-1β; [6]) was 4.60 and the pIC50 (IL-6; [8]) was < 4.00.
With C=C(CC(=O)N[C@@H](CO)c1ccc(C(F)(F)F)cc1)C(=O)O [Example 12, (R)-4-((2-hydroxy-1-(4-(trifluoromethyl)phenyl)ethyl)amino)-2-methylene-4-oxobutanoic acid] the pIC50 (IL-1β; [6]) was 4.58, the pIC50 (IL-1β; [7]) was 4.45 and the pIC50 (IL-6; [8]) was < 4.00.
Compound C=C(CC(=O)N[C@@H](C)c1ccc(C(F)(F)F)cc1)C(=O)OCCNS(C)(=O)=O [Example 25, 2-(methylsulfonamido)ethyl (S)-2-methylene-4-oxo-4-((1-(4-(trifluoromethyl)phenyl)ethyl)amino)butanoate] has a pIC50 (IL-1β; [6]) of 5.39, a half-life at 10 μM [3] of 1.17 h and a Clint ([1]; human, hepatocytes) of 21 μL min^−1 10^−6 cells. For the same compound, the half-life at 10 μM [4] was 0.183 h and the Clint ([2]; mouse, hepatocytes) was 153 μL min^−1 10^−6 cells.
In the case of C=C(CC(=O)N[C@@H](C)c1ccc(C(F)(F)F)cn1)C(=O)OC1CN(C(C)=O)C1 [Example 36, 1-acetylazetidin-3-yl (S)-2-methylene-4-oxo-4-((1-(5-(trifluoromethyl)pyridin-2-yl)ethyl)amino)butanoate], the pIC50 (IL-1β; [6]) was 5.41, the pIC50 (IL-6; [8]) was < 4.00 and the Emax ([5]; +GSH, normalised to dimethyl fumarate high control, read-out: NRF2 activation Emax, +GSH) was 25%. For the same compound, the Emax [5, 10] was 65%, the pEC50 ([5]; +GSH, read-out: NRF2 activation EC50, +GSH) was < 4.00 and the pEC50 [5, 11] was 4.80. For the same compound, the half-life at 10 μM [4] was 0.367 h and the Clint ([2]; mouse, hepatocytes) was 61 μL min^−1 10^−6 cells.
With CC/C=C(\CC(=O)N[C@@H](C)c1ccc(C(F)(F)F)cc1)C(=O)O [Example 43, (S,E)-2-(2-oxo-2-((1-(4-(trifluoromethyl)phenyl)ethyl)amino)ethyl)pent-2-enoic acid] the pIC50 (IL-1β; [6]) was 5.68, the half-life at 10 μM [3] was > 7.67 h and the Clint ([1]; human, hepatocytes) was <3 μL min^−1 10^−6 cells. For the same compound, the half-life at 10 μM [4] was 2.72 h and the Clint ([2]; mouse, hepatocytes) was 9 μL min^−1 10^−6 cells.
Compound C[C@H](NC(=O)C/C(=C\CCc1ccccc1)C(=O)O)c1ccc(C(F)(F)F)cc1 [Example 46, (S,E)-2-(2-oxo-2-((1-(4-(trifluoromethyl)phenyl)ethyl)amino)ethyl)-5-phenylpent-2-enoic acid] has a pIC50 (IL-1β; [6]) of 5.60, a half-life at 10 μM [3] of 3.35 h and a Clint ([1]; human, hepatocytes) of 7 μL min^−1 10^−6 cells. For the same compound, the half-life at 10 μM [4] was 0.667 h and the Clint ([2]; mouse, hepatocytes) was 37 μL min^−1 10^−6 cells.
For C=C(CC(=O)N[C@@H](C)c1ccc(C(F)(F)F)nc1)C(=O)O [Example 38, (S)-2-methylene-4-oxo-4-((1-(6-(trifluoromethyl)pyridin-3-yl)ethyl)amino) butanoic acid], the pIC50 (IL-1β; [6]) was 4.53 and the pIC50 (IL-6; [8]) was < 4.00.
With C=C(CC(=O)OC)C(=O)OC [dimethyl itaconate, Dimethyl itaconate, reference compound] the pIC50 (IL-1β; [6]) was < 4.00, the pIC50 (IL-6; [8]) was 4.00 and the Emax [5, 10] was 137%. The pEC50 [5, 11] was 4.67 and the “NRF2 activation Emax, −GSH” value [5, 12] was 137%.
In the case of C=C(C(=O)O)C(C)C(=O)NC(C)(C)c1ccc(C(F)(F)F)cc1 (centres unmarked) [Example 51, 3-methyl-2-methylene-4-oxo-4-((2-(4-(trifluoromethyl)phenyl)propan-2-yl)amino)butanoic acid], the pIC50 (IL-1β; Homo sapiens, THP-1, read-out: IL-1β (IC50)) was 4.99, the pIC50 (IL-6; Homo sapiens, THP-1, read-out: IL-6 (IC50)) was < 4.00 and the half-life at 10 μM [3] was > 7.67 h. For the same compound, the Clint ([1]; human, hepatocytes) was <3 μL min^−1 10^−6 cells.
With C=C(CC(=O)NC(c1ccc(C(F)(F)F)cc1)C1CC1)C(=O)O (centres unmarked) [Example 23, 4-((cyclopropyl(4-(trifluoromethyl)phenyl)methyl)amino)-2-methylene-4-oxobutanoic acid] the pIC50 (IL-1β; [9]) was 4.87, the pIC50 (IL-6; [13]) was < 4.00 and the Clint ([1]; human, hepatocytes) was <3 μL min^−1 10^−6 cells. For the same compound, the T½ ([1]; human, hepatocytes, 10 μM) was >7.67 h, the Clint ([2]; mouse, hepatocytes) was 4 μL min^−1 10^−6 cells and the T½ ([2]; mouse, hepatocytes, 10 μM) was 5.92 h.
With C=C(C(=O)O)C(C)C(=O)N[C@@H](C)c1ccc(C(F)(F)F)cc1 (single isomer, unassigned; isomer 2) [Example 55] the pIC50 (IL-1β; [9]) was 4.72, the pIC50 (IL-6; [13]) was < 4.50 and the Clint ([1]; human, hepatocytes) was <3 μL min^−1 10^−6 cells. The T½ ([1]; human, hepatocytes, 10 μM) was >7.67 h, the Clint ([2]; mouse, hepatocytes) was 3 μL min^−1 10^−6 cells and the T½ ([2]; mouse, hepatocytes, 10 μM) was 7.62 h.
With C=C(CC(=O)OCCCCCCCC)C(=O)O [4-octyl itaconate, 4-Octyl itaconate, reference compound] the pIC50 (IL-1β; [9]) was 4.42, the pIC50 (IL-6; [13]) was 4.69 and the “NRF2 activation Emax, +GSH” value ([5]; +GSH, normalised to dimethyl fumarate high control) was 148%. The “NRF2 activation Emax, −GSH” value [5, 12] was 165%, the Clint [1, 14] was 401 μL min^−1 10^−6 cells and the T½ [1, 14] was 0.067 h. It also gave a Clint [2, 15] of 351 μL min^−1 10^−6 cells and a T½ [2, 15] of 0.067 h.
In the case of C=C(CC(=O)N[C@@H](CC)c1ccc(C(F)(F)F)cc1)C(=O)O [Example 8, (S)-2-methylene-4-oxo-4-((1-(4-(trifluoromethyl)phenyl)propyl)amino)butanoic acid], the pIC50 (IL-1β; [6]) was 4.36 and the pIC50 (IL-6; [8]) was < 4.00.
For C=C(CC(=O)N[C@@H](C)c1ccc(C(F)F)cc1)C(=O)O [Example 18, (S)-4-((1-(4-(difluoromethyl)phenyl)ethyl)amino)-2-methylene-4-oxobutanoic acid], the pIC50 (IL-1β; [6]) was 4.25 and the pIC50 (IL-6; [8]) was < 4.50.
